The text below walks through data of ChEMBL document CHEMBL5523691, “SAR study of N'-(Salicylidene)heteroarenecarbohydrazides as promising antifungal agents” (Bioorg Med Chem, 2024).

In brackets after ≈: the same amount, converted by molar mass. Activity calls are given as the source filed them. The calls are words filed in the database; no cut-off is given here.

Data set [1] relates to Aspergillus fumigatus. Briefly: Antifungal activity against Aspergillus fumigatus assessed as inhibition of fungal growth incubated for 24 to 72 hrs by optical density based analysis. In kind it is functional. Conditions: time 24-72 hrs.
Data set [2] relates to Cryptococcus neoformans. Nature of the data set: Synergistic antifungal activity against wild type Cryptococcus neoformans H99 assessed as fractional inhibitory concentration index in presence of caspofungin. The data set is classed as functional.
Data set [3] relates to Cryptococcus neoformans. Briefly: Antifungal activity against wild type Cryptococcus neoformans H99 assessed as inhibition of fungal growth in presence of amphotericin B. The data set is classed as functional.
Data set [4] deals with Candida albicans. Nature of the data set: Antifungal activity against Candida albicans assessed as inhibition of fungal growth incubated for 24 to 72 hrs by optical density based analysis. In kind it is functional. To be noted: time 24-72 hrs.
For data set [5], the system named is Cryptococcus neoformans. Nature of the data set: Antifungal activity against wild type Cryptococcus neoformans H99 assessed as inhibition of fungal growth in presence of fluconazole. The data set is classed as functional.
Data set [6] concerns Cryptococcus neoformans. Briefly: Antagonistic antifungal activity against wild type Cryptococcus neoformans H99 in presence of amphotericin B. The data set is classed as functional, organism-based.
The subject of data set [7] is Cryptococcus neoformans. Briefly: Synergistic antifungal activity against wild type Cryptococcus neoformans H99 assessed as fractional inhibitory concentration index in presence of fluconazole. The data set is classed as functional.
For data set [8], the system named is Cryptococcus neoformans. Nature of the data set: Antagonistic antifungal activity against wild type Cryptococcus neoformans H99 in presence of caspofungin. In kind it is functional, organism-based.
Data set [9] in a line: Cytotoxicity against human A549 cells assessed as cell killing measured after 24 to 48 hrs by MTT assay. The data set is classed as toxicity, cell-based. To be noted: time 24-48 hrs, read-out: LD50 (the source's name). On the technique in general: Tetrazolium dyes change colour on reduction, which living cells bring about.
In data set [10] the test system is Cryptococcus neoformans. Nature of the data set: Antagonistic antifungal activity against wild type Cryptococcus neoformans H99 in presence of fluconazole. In kind it is functional, organism-based.
For data set [11], the system named is Cryptococcus neoformans. Nature of the data set: Antifungal activity against wild type Cryptococcus neoformans H99 assessed as inhibition of fungal growth in presence of caspofungin. In kind it is functional.
For data set [12], the system named is Cryptococcus neoformans. Briefly: Fungicidal activity against wild type Cryptococcus neoformans H99 assessed as minimum concentration required to kill fungus measured after 24 hrs by time-kill assay. In kind it is functional.
The subject of data set [13] is Cryptococcus neoformans. Nature of the data set: Synergistic antifungal activity against wild type Cryptococcus neoformans H99 assessed as fractional inhibitory concentration index in presence of amphotericin B. The data set is classed as functional.
Data set [14] deals with Cryptococcus neoformans. Briefly: Antifungal activity against wild type Cryptococcus neoformans H99 assessed as inhibition of fungal growth incubated for 24 to 72 hrs by optical density based analysis. To be noted: time 24-72 hrs. In kind it is functional.
Data set [15] can be described thus: Selectivity index, ratio of LD50 for human A549 cells to MIC80 for Cryptococcus neoformans H99. The data set is classed as toxicity. To be noted: read-out: Selectivity Index.
Data set [16] relates to Cryptococcus neoformans. Briefly: Fungicidal activity against wild type Cryptococcus neoformans H99 assessed as minimum concentration required to kill fungus measured after 48 hrs by time-kill assay. The data set is classed as functional.
The test system of data set [17] is Cryptococcus neoformans. Nature of the data set: Antifungal activity against wild type Cryptococcus neoformans H99 assessed as fractional inhibitory concentration index in presence of fluconazole. The data set is classed as functional.
The test system of data set [18] is Cryptococcus neoformans. Briefly: Fungicidal activity against wild type Cryptococcus neoformans H99 assessed as minimum concentration required to kill fungus measured after 12 hrs by time-kill assay. The data set is classed as functional.
The subject of data set [19] is Cryptococcus neoformans. Briefly: Fungicidal activity against wild type Cryptococcus neoformans H99 assessed as minimum concentration required to kill fungus measured after 96 hrs by time-kill assay. In kind it is functional.
The test system of data set [20] is Cryptococcus neoformans. Briefly: Antifungal activity against wild type Cryptococcus neoformans H99 assessed as fractional inhibitory concentration index in presence of amphotericin B. In kind it is functional.
The test system of data set [21] is Cryptococcus neoformans. Briefly: Fungicidal activity against wild type Cryptococcus neoformans H99 assessed as minimum concentration required to kill fungus measured after 72 hrs by time-kill assay. The data set is classed as functional.

Turning to `C[C@@H](c1ncncc1F)[C@](O)(Cn1cncn1)c1ccc(F)cc1F` [VORICONAZOLE], the MIC80 in [1] worked out at 0.125 mg/L (≈ 0.358 µM).
Take `O=C(N/N=C/c1ccc(Br)cc1O)c1cc(Br)c(Br)s1`: the “fractional inhibitory concentration index (FICI)” value in data set [2] came out at 0.78; in [7], 0.6; in data set [13] it was 0.78. For the same compound, the MIC80 is 0.001 mg/L in data set [3]; 0.125 mg/L (≈ 0.259 µM) in data set [4]; 0.001 mg/L in [5]; 0.06 mg/L (≈ 0.124 µM) in data set [1]; 0.001 mg/L in data set [11]; 0.002 mg/L (≈ 0.00414 µM) in data set [14]. Also, the result in data set [6], in data set [8] and in [10] was inactive. For the same compound, the CC50 in data set [9] was greater than 32 mg/L. In addition, the MFC100 in [12] worked out at 0.5 mg/L (≈ 1.04 µM). Further, the selectivity ratio in data set [15] was greater than 533.
Regarding `O=C(N/N=C/c1cc(Br)ccc1O)c1csc(Br)c1`, the entries for the “fractional inhibitory concentration index (FICI)” value in data set [2], in data set [17] and in [13] were 0.14, 1.1 and 0.53, respectively. Moreover, the MIC80 came to 0.001 mg/L in [3]; 0.125 mg/L (≈ 0.309 µM) in [4]; 0.002 mg/L in data set [5]; 1 mg/L (≈ 2.47 µM) in [1]; 0.015 mg/L in data set [11]; 0.014 mg/L (≈ 0.0346 µM) in data set [14]. The result in data set [6], in [8] and in data set [10] was inactive. Besides, in data set [16], the MFC100 was determined as 0.06 mg/L (≈ 0.148 µM). In addition, in data set [9], the CC50 was greater than 32 mg/L. Besides, the selectivity ratio in data set [15] was greater than 1070.
Turning to `O=C(N/N=C/c1ccc(Br)cc1O)c1ccc(Br)o1`, the “fractional inhibitory concentration index (FICI)” value in data set [2] is on record as 0.37; in data set [7], 0.25; in [13] it was 0.53. Moreover, the MIC80 worked out at 0.015 mg/L in data set [3]; 0.5 mg/L (≈ 1.29 µM) in data set [4]; 0.015 mg/L in data set [5]; 0.5 mg/L (≈ 1.29 µM) in data set [1]; 0.015 mg/L in [11]; 0.12 mg/L (≈ 0.309 µM) in [14]. The outcome in [6], in [8] and in data set [10] was inactive. For the same compound, the CC50 in data set [9] was greater than 32 mg/L. Moreover, the MFC100 in [12] was found to be 0.5 mg/L (≈ 1.29 µM). In data set [15], the selectivity ratio was greater than 533.
On to `O=C(N/N=C/c1cc(Br)cc(Br)c1O)c1csc(Br)c1`, for which, in data set [18], the MFC100 came out at 0.25 mg/L (≈ 0.518 µM). Also, the CC50 in data set [9] came to 16 mg/L (≈ 33.1 µM). In [14], the MIC80 was found to be 0.12 mg/L (≈ 0.248 µM). The selectivity ratio in data set [15] came out at 133.
For the compound `O=C(N/N=C/c1ccc(Br)cc1O)c1cc(Br)co1`, the MFC100 in data set [19] was 2 mg/L (≈ 5.15 µM). In data set [9], the CC50 came out at 16 mg/L (≈ 41.2 µM). The MIC80 in data set [14] is 0.5 mg/L (≈ 1.29 µM). Moreover, in data set [15], the selectivity ratio came to 32.
Turning to `OC(Cn1cncn1)(Cn1cncn1)c1ccc(F)cc1F` [FLUCONAZOLE], the MIC80 in data set [4] stood at 1 mg/L (≈ 3.27 µM); in data set [14] it was 2 mg/L (≈ 6.53 µM).
Regarding `O=C(N/N=C/c1cc(Br)cc(Br)c1O)c1ccc(C(F)(F)F)s1`, the MFC100 in data set [16] came to 0.25 mg/L (≈ 0.53 µM). Besides, the CC50 in data set [9] turned out to be 1 mg/L (≈ 2.12 µM). In [14], the MIC80 worked out at 0.06 mg/L (≈ 0.127 µM). Also, the selectivity ratio in data set [15] is 16.6.
`O=C(N/N=C/c1cc(Br)cc(Br)c1O)c1cc(Br)c(Br)o1`: the MFC100 in data set [18] came to 0.12 mg/L (≈ 0.22 µM). In addition, the CC50 in data set [9] is 16 mg/L (≈ 29.3 µM). For the same compound, the MIC80 in data set [14] turned out to be 0.12 mg/L (≈ 0.22 µM). The selectivity ratio in data set [15] came to 133.
Turning to `O=C(N/N=C/c1c(O)ccc2ccccc12)c1ccc(C(F)(F)F)o1`, the MFC100 in data set [16] turned out to be 2 mg/L (≈ 5.74 µM). Also, the CC50 in [9] turned out to be 0.12 mg/L (≈ 0.345 µM). Also, in [14], the MIC80 stood at 0.5 mg/L (≈ 1.44 µM). Besides, the selectivity ratio in data set [15] was 0.24.
For the compound `O=C(N/N=C/c1cc(Br)ccc1O)c1ccc(Br)o1`, the results for the “fractional inhibitory concentration index (FICI)” value in [2], in [20] and in [7] were 0.75, 1.12 and 0.56, respectively. The MIC80 in [3] worked out at 0.015 mg/L; in [4], 1 mg/L (≈ 2.58 µM); in [5], 0.06 mg/L; in [1], 0.25 mg/L (≈ 0.644 µM); in [11] it was 0.06 mg/L; in data set [14], 0.12 mg/L (≈ 0.309 µM). In addition, the result in data set [6], in [8] and in [10] was inactive. Besides, the CC50 in data set [9] was greater than 32 mg/L. In addition, the MFC100 in [12] was 0.25 mg/L (≈ 0.644 µM). For the same compound, the selectivity ratio in data set [15] is greater than 533.
Consider `CC[C@H](C)C[C@H](C)CCCCCCCCC(=O)N[C@H]1C[C@@H](O)[C@@H](NCCN)NC(=O)[C@@H]2[C@@H](O)CCN2C(=O)[C@H]([C@H](O)CCN)NC(=O)[C@H]([C@H](O)[C@@H](O)c2ccc(O)cc2)NC(=O)[C@@H]2C[C@@H](O)CN2C(=O)[C@H]([C@@H](C)O)NC1=O` [CASPOFUNGIN], for which the values for the MIC80 in data set [4] and in data set [14] were 0.5 mg/L (≈ 0.457 µM) and greater than 32 mg/L, respectively.
Take `O=C(N/N=C/c1cc(Br)cc(Br)c1O)c1cc(Br)c(Br)s1`: the MFC100 in data set [18] was found to be 1 mg/L (≈ 1.78 µM). Moreover, the CC50 in [9] was greater than 32 mg/L. For the same compound, the MIC80 in data set [14] stood at 1 mg/L (≈ 1.78 µM). Moreover, the selectivity ratio in data set [15] was greater than 32.
As for `C[C@@H]1[C@H](O)[C@@H](C)/C=C/C=C/C=C/C=C/C=C/C=C/C=C/[C@H](O[C@@H]2O[C@H](C)[C@@H](O)[C@H](N)[C@@H]2O)C[C@@H]2O[C@](O)(C[C@@H](O)C[C@@H](O)[C@H](O)CC[C@@H](O)C[C@@H](O)CC(=O)O[C@H]1C)C[C@H](O)[C@H]2C(=O)O` [AMPHOTERICIN B], the MIC80 in data set [1] was 1 mg/L (≈ 1.08 µM); in data set [14] it was 0.5 mg/L (≈ 0.541 µM).
With `O=C(N/N=C/c1c(O)ccc2ccccc12)c1csc(Br)c1`, the MFC100 in [16] came to 0.25 mg/L (≈ 0.666 µM). Moreover, the CC50 in [9] was greater than 32 mg/L. The MIC80 in [14] turned out to be 0.25 mg/L (≈ 0.666 µM). Also, the selectivity ratio in [15] was greater than 128.
As to `O=C(N/N=C/c1c(O)ccc2ccccc12)c1ccc(Br)o1`, the MFC100 in data set [16] was 1 mg/L (≈ 2.78 µM). In addition, the CC50 in data set [9] is 32 mg/L (≈ 89.1 µM). Besides, in [14], the MIC80 stood at 0.12 mg/L (≈ 0.334 µM). Also, in data set [15], the selectivity ratio is 267.
For `O=C(N/N=C/c1ccc(Br)cc1O)c1ccc(C(F)(F)F)o1`, the MFC100 in [21] worked out at 4 mg/L (≈ 10.6 µM). Further, the CC50 in data set [9] came out at 4 mg/L (≈ 10.6 µM). For the same compound, the MIC80 in data set [14] was 1 mg/L (≈ 2.65 µM). For the same compound, the selectivity ratio in data set [15] amounted to 4.

For orientation: MIC80 means the lowest concentration that inhibits either 80% of growth or 80% of the strains tested, depending on the study.
